Measured values reported in patent US11634391B2, “Compounds which are inhibitors of Notum” (UCL BUSINESS LTD, priority 2018, dated 2023).
Counter-ions that a name gives are not always drawn.

Target: notum carboxyesterase enzyme (Homo sapiens (Human), UniProt Q6P988)
Assay: Biochemical Notum Enzymatic Activity Assay (OPTS substrate, fluorescence)
Conditions: 2 μM OPTS solution, 2.38 nM notum enzyme solution, 1 hour incubation at room temperature, fluorescence ex 485 nm / em 520 nm; n≥2
Excerpt: Plate layout and measured fluorescence values were input into Dotmatics Studies data management tool.

notum carboxyesterase enzyme, sequence (Q6P988 20-496): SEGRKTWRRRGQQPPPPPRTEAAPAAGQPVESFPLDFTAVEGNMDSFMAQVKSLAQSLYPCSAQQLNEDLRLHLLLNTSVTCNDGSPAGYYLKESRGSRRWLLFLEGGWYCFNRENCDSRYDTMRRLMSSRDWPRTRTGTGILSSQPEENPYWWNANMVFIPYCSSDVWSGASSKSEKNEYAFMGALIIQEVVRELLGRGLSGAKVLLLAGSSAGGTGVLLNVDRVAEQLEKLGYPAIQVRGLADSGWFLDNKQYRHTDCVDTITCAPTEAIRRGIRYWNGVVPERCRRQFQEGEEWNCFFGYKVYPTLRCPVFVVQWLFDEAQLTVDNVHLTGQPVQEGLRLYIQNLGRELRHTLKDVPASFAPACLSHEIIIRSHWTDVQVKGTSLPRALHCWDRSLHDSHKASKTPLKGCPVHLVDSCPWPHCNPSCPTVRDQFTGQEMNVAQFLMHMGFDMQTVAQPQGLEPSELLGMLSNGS

Compound	IC50
4-(4-(1,3,4-oxadiazol-2-yl)-2-(trifluoromethyl)phenyl)pyrrolidine [Compound 280]	0.405 µM
OCc1cn(-c2ccc3ccccc3c2)nn1 [Compound 3, (1-(naphthalen-2-yl)-1H-1,2,3-triazol-4-yl)methanol]	1.28 µM
OCc1cn(-c2ccc3c(c2)OCO3)nn1 [Compound 4, (1-(benzo[d][1,3]dioxol-5-yl)-1H-1,2,3-triazol-4-yl)methanol]	37.3 µM
OCc1cn(-c2ccc3c(c2)OCCO3)nn1 [Compound 6, (1-(2,3-dihydrobenzo[b][1,4]dioxin-6-yl)-1H-1,2,3-triazol-4-yl)methanol]	44.6 µM
OCc1cn(-c2cccc(Cl)c2Cl)nn1 [Compound 7, (1-(2,3-dichlorophenyl)-1H-1,2,3-triazol-4-yl)methanol]	6.77 µM
OCc1cn(-c2ccc(Cl)cc2Cl)nn1 [Compound 8, (1-(2,4-dichlorophenyl)-1H-1,2,3-triazol-4-yl)methanol]	7.2 µM
OCc1cn(-c2ccc3nccnc3c2)nn1 [Compound 12, (1-(quinoxalin-6-yl)-1H-1,2,3-triazol-4-yl)methanol]	52.5 µM
Cn1ncc2ccc(-n3cc(CO)nn3)cc21 [Compound 15, (1-(1-methyl-1H-indazol-6-yl)-1H-1,2,3-triazol-4-yl)methanol]	86.1 µM
OCc1cn(-c2ccc(Cl)c(OCc3ccccc3)c2)nn1 [Compound 17, (1-(3-(benzyloxy)-4-chlorophenyl)-1H-1,2,3-triazol-4-yl)methanol]	5.69 µM
OCc1cn(-c2ccc(Cl)c(OCC3CC3)c2)nn1 [Compound 18, (1-(4-chloro-3-(cyclopropylmethoxy)phenyl)-1H-1,2,3-triazol-4-yl)methanol]	> 10 µM
OCc1cn(-c2ccc(Cl)c(Cl)c2)nn1 [Compound 19, (1-(3,4-dichlorophenyl)-1H-1,2,3-triazol-4-yl)methanol]	0.484 µM
OCc1cn(-c2ccccc2Cl)nn1 [Compound 20, (1-(2-chlorophenyl)-1H-1,2,3-triazol-4-yl)methanol]	39.1 µM
OCc1cn(-c2cccc(Cl)c2)nn1 [Compound 21, (1-(3-chlorophenyl)-1H-1,2,3-triazol-4-yl)methanol]	9.49 µM
OCc1cn(-c2cccc3ccccc23)nn1 [Compound 25, (1-(naphthalen-1-yl)-1H-1,2,3-triazol-4-yl)methanol]	36.8 µM
OCc1cn(-c2cc(Cl)ccc2Cl)nn1 [Compound 26, (1-(2,5-dichlorophenyl)-1H-1,2,3-triazol-4-yl)methanol]	25.5 µM
OCc1cn(-c2cc(Cl)cc(Cl)c2)nn1 [Compound 27, (1-(3,5-dichlorophenyl)-1H-1,2,3-triazol-4-yl)methanol]	3.03 µM
NCc1cn(-c2ccc(Cl)c(Cl)c2)nn1 [Compound 31, (1-(3,4-dichlorophenyl)-1H-1,2,3-triazol-4-yl)methanamine]	8.82 µM
NCc1cn(-c2cc(Cl)cc(Cl)c2)nn1 [Compound 36, (1-(3,5-dichlorophenyl)-1H-1,2,3-triazol-4-yl)methanamine hydrochloride]	44.6 µM
NCc1cn(-c2ccccc2)nn1 [Compound 39, (1-phenyl-1H-1,2,3-triazol-4-yl)methanamine]	4.87 µM
CC(O)c1cn(-c2ccc(Cl)c(Cl)c2)nn1 (stereo not shown) [Compound 40, 1-(1-(3,4-dichlorophenyl)-1H-1,2,3-triazol-4-yl)ethan-1-ol]	> 10 µM
CC(C)(O)c1cn(-c2ccc(Cl)c(Cl)c2)nn1 [Compound 41, 2-(1-(3,4-dichlorophenyl)-1H-1,2,3-triazol-4-yl)propan-2-ol]	> 10 µM

Compound	IC50
CC(=O)NCc1cn(-c2ccc(Cl)c(Cl)c2)nn1 [Compound 42, N-((1-(3,4-dichlorophenyl)-1H-1,2,3-triazol-4-yl)methyl)acetamide]	19.5 µM
COCc1cn(-c2ccc(Cl)c(Cl)c2)nn1 [Compound 43, 1-(3,4-dichlorophenyl)-4-(methoxymethyl)-1H-1,2,3-triazole]	5.04 µM
CN(C)Cc1cn(-c2ccc(Cl)c(Cl)c2)nn1 [Compound 44, 1-(1-(3,4-dichlorophenyl)-1H-1,2,3-triazol-4-yl)-N,N-dimethylmethanamine hydrochloride]	74.5 µM
OCc1ncn(-c2ccc(Cl)c(Cl)c2)n1 [Compound 47, (1-(3,4-dichlorophenyl)-1H-1,2,4-triazol-3-yl)methanol]	49.5 µM
Clc1cccc(-c2cc[nH]n2)c1 [Compound 54, 3-(3-chlorophenyl)-1H-pyrazole]	17.7 µM
Fc1cc(F)cc(-c2cc[nH]n2)c1 [Compound 56, 3-(3,5-difluorophenyl)-1H-pyrazole]	23 µM
CC(C)c1ccc(-n2ccnn2)cc1 [Compound 60, 1-(4-isopropylphenyl)-1H-1,2,3-triazole]	0.995 µM
Clc1ccc(-c2nnco2)cn1 [Compound 124, 2-(6-chloropyridin-3-yl)-1,3,4-oxadiazole]	13 µM
OCc1cn(-c2ccc(Cl)c(Cl)c2)cn1 [Compound 127, [1-(3,4-dichlorophenyl)imidazol-4-yl]methanol]	5.95 µM
Clc1ccc(-c2n[nH]c(-c3ccccn3)n2)cc1Cl [Compound 130, 2-(3-(3,4-dichlorophenyl)-1H-1,2,4-triazol-5-yl)pyridine]	0.596 µM
N#Cc1nnc(-c2ccccc2)o1 [Compound 132, 5-phenyl-1,3,4-oxadiazole-2-carbonitrile]	18.8 µM
c1ccc(-n2cnnn2)cc1 [Compound 134, 1-phenyl-1H-tetrazole]	19.4 µM
Nc1nnc(-c2ccccc2)o1 [Compound 137, 5-phenyl-1,3,4-oxadiazol-2-amine]	33 µM
Nc1nc(-c2ccccc2)no1 [Compound 141, 3-phenyl-1,2,4-oxadiazol-5-amine]	70.6 µM
NCc1cc(-c2ccccc2)no1 [Compound 143, (3-phenylisoxazol-5-yl)methanamine]	11.6 µM
NCc1cc(-c2cccc(Cl)c2)no1 [Compound 147, (3-(3-chlorophenyl)isoxazol-5-yl)methanamine]	15.2 µM
Clc1ccc(-n2ccnc2)cc1 [Compound 149, 1-(4-chlorophenyl)imidazole]	5.16 µM
Clc1ccc(-c2ccno2)cc1 [Compound 150, 5-(4-chlorophenyl)isoxazole]	1.1 µM
Clc1ccc(-c2cnco2)cc1 [Compound 151, 5-(4-chlorophenyl)oxazole]	5.74 µM
NCc1nc(-c2ccc(Cl)cc2)no1 [Compound 152, [3-(4-chlorophenyl)-1,2,4-oxadiazol-5-yl]methanamine]	43.1 µM
Nc1nnc(-c2ccc(Cl)cc2)o1 [Compound 156, 2-amino-5-(4-chlorophenyl)-1,3,4-oxadiazole]	11.9 µM

Results, then the compound that gave them:

IC50	Compound
0.81 µM	Cc1ccc(-n2cc(CO)nn2)cc1C [Compound 5, (1-(3,4-dimethylphenyl)-1H-1,2,3-triazol-4-yl)methanol]
0.0935 µM	OCc1cn(-c2ccc(Cl)c(C(F)(F)F)c2)nn1 [Compound 9, (1-(4-chloro-3-(trifluoromethyl)phenyl)-1H-1,2,3-triazol-4-yl)methanol]
1.72 µM	OCc1cn(-c2ccc(C(F)(F)F)c(Cl)c2)nn1 [Compound 13, (1-(3-chloro-4-(trifluoromethyl)phenyl)-1H-1,2,3-triazol-4-yl)methanol]
6.61 µM	COc1cc(-n2cc(CO)nn2)ccc1Cl [Compound 30, (1-(4-chloro-3-methoxyphenyl)-1H-1,2,3-triazol-4-yl)methanol]
37.5 µM	NCc1cn(-c2cccc(C(F)(F)F)c2)nn1 [Compound 38, (1-(3-(trifluoromethyl)phenyl)-1H-1,2,3-triazol-4-yl)methanamine hydrochloride]
85.9 µM	CCOc1cccc(-c2nnc(N)s2)c1 [Compound 48, 5-(3-ethoxyphenyl)-1,3,4-thiadiazol-2-amine]
0.008 µM	FC(F)(F)c1ccc(-c2c[nH]nn2)cc1C(F)(F)F [Compound 49, 4-(3,4-bis(trifluoromethyl)phenyl)-1H-1,2,3-triazole]
0.0194 µM	FC(F)(F)c1cc(-c2c[nH]nn2)ccc1Cl [Compound 50, 4-(4-chloro-3-(trifluoromethyl)phenyl)-1H-1,2,3-triazole]
1.36 µM	FC(F)(F)c1cc(-c2cc[nH]n2)ccc1Cl [Compound 51, 3-(4-chloro-3-(trifluoromethyl)phenyl)-1H-pyrazole]
3.27 µM	Oc1c(F)cc(F)cc1-c1cc[nH]n1 [Compound 52, 2,4-difluoro-6-(1H-pyrazol-3-yl)phenol]
16.7 µM	Fc1ccc(-c2cc[nH]n2)cc1F [Compound 53, 3-(3,4-difluorophenyl)-1H-pyrazole]
5.1 µM	Clc1ccc(-c2cc[nH]n2)cc1Cl [Compound 55, 3-(3,4-dichlorophenyl)-1H-pyrazole]
34.2 µM	COc1ccc(-c2cc[nH]n2)c(O)c1 [Compound 57, 5-methoxy-2-(1H-pyrazol-3-yl)phenol]
0.97 µM	O=C(O)c1cn(-c2ccc(Cl)c(C(F)(F)F)c2)nn1 [Compound 58, 1-(4-chloro-3-(trifluoromethyl)phenyl)-1H-1,2,3-triazole-4-carboxylic acid]
0.036 µM	Cc1ccc(-c2nnc(O)o2)cc1OC(F)(F)F [Compound 79, 5-(4-methyl-3-(trifluoromethoxy)phenyl)-1,3,4-oxadiazol-2-ol]
61 µM	ClCc1nnc(-c2ccc(Cl)c(Cl)c2)o1 [Compound 125, 2-(chloromethyl)-5-(3,4-dichlorophenyl)-1,3,4-oxadiazole]
0.726 µM	OCc1nnc(-c2ccc(Cl)c(Cl)c2)o1 [Compound 126, [5-(3,4-dichlorophenyl)-1,3,4-oxadiazol-2-yl]methanol]
2.94 µM	NCc1nnc(-c2ccccc2)o1 [Compound 140, (5-phenyl-1,3,4-oxadiazol-2-yl)methanamine]
3.47 µM	Cc1ccc(-c2csnn2)cc1 [Compound 145, 4-(p-tolyl)-1,2,3-thiadiazole]
